The values that follow come from patent US6083692A, “Method of detecting the presence and measuring the quantity of biological polymers” (American Home Products Corporation, priority 1996, dated 2000).

This test concerns ATP-dependent exonuclease. The test is described as follows: Coupled spectrophotometric assay: ADP formation coupled to NADH oxidation (PK/LDH), read at 340 nm. As to conditions: for Product inhibition: observed only upon >50% conversion of the substrates ATP and DNA; for Relative rate of ATP hydrolysis: alone. The class given is biochemical. Here is the method: Standard curves were routinely generated by using 0, 2, 6, 10, 14 and 18 μL of 1 ng/μL substrate DNA. Eighty μl of the reaction mix was incubated with up to 20 μl of DNA and dH2 O (total volume of 100 μl) at 25° C. The reactions were quenched with 15 μl of 200 mM EDTA, pH 8.0/NaOH, following a 30 or 40 min incubation. The reactions were read at 340 nm.
The 10× assay buffer contained tris-acetate (pH 7.8/acetate at 25° C.); 330 mM, potassium acetate; 660 mM, magnesium acetate; 100 mM, dithiothreitol; 5 mM, Triton X-100, 0.1%. The reaction mix was prepared as follows, 10× buffer; 0.250 ml, NADH; 0.250 ml (0.64 μmoles), PEP; 25.0 μl (2.4 μmoles), ATP; 75.0 μl (2.5 μmoles), H2 O; 1.305 ml, PK/LDH enzyme mix; 75.0 μl, ATP dependent DNAase; 20.0 μl (200 units).
An enzyme kinetics program ENZFITTER (Elsevier Biosoft) was used to generate a plot (A340 versus ng DNA) of the standard. The slope was calculated following a regression analysis. A similar plot of the sample (A340 versus μL DNA) was also prepared. The slope determined from the regression analysis was used to calculate the concentration of linear DNA in the sample.
A reliable method for quantification requires that the concentration of products formed in the reaction is linear with time, concentrations of enzyme and of substrate. In the present assay, ATP hydrolysis was linear with time. The experiments that generated the data shown in FIG. 2 are a coupled spectrophotometric assay in which the linear DNA content was varied from 2 to 20 ng. Twenty μL aliquots were removed at various times (10, 20, 30 & 60 min), and quenched by mixing with 4 μl of 200 mM EDTA as described in Materials and Methods. The samples were further diluted to 100 μl with water, to facilitate determination of optical density. ATP hydrolysis was linear with time and at least up to 40% substrate converted to products (<0.4 mM ADP and Pi). ADP formation was also linear with several enzyme concentrations. The experiments that generated the data shown in FIG. 3 are a coupled assay system in which the amount of enzyme added to the reaction was varied. The enzyme was diluted using 1× reaction buffer and left on ice prior to its addition to the reaction mixture. The reaction was quenched at 15 min, with EDTA as described in Materials and Methods. ADP formation was linear with several enzyme concentrations at least until 0.36 mM ADP and Pi was formed in the reaction. The reaction rates were slower when ~60% of the substrates (100 ng DNA and 1 mM ATP) were converted to products. […] The Vmax was 30 nmoles/min/mg enzyme. In the experiments that generated the data in FIG. 4, the reaction was carried out in a coupled assay as described in the Methods. The reactions were initiated by the addition of enzyme. Following initiation of the 500 μl reaction; 100 μl samples were withdrawn at 1, 2, 5 and 10 min and quenched with 10 μl of 200 mM EDTA. Initial velocities were derived from the reaction rate, obtained by linear regression analysis of absorbances at 340 nm recorded at various times during the reaction. […] The data reported in FIG. 5A is replot of FIG. 2 as a function of linear DNA content in the reaction mixture. In the experiments which generated these date, the 20 μl aliquots were quenched with EDTA as described above, at various times of incubation. […] The results are consistent with the potential use of this enzyme to quantify linear DNA content.

Where [1] appears, read: 50 ng linear DNA as substrate, +10 mM EDTA or +1 mM citrate.

As for `Nc1ncnc2c1ncn2[C@@H]1O[C@H](COP(=O)(O)OP(=O)(O)O)[C@@H](O)[C@H]1O` [ADP, adenosine diphosphate], the Product inhibition result was “Product inhibition”.

On to `O=C(O)CN(CCN(CC(=O)O)CC(=O)O)CC(=O)O` [EDTA], for which the “Relative rate of ATP hydrolysis” value under setting [1] stood at 0.008. Where the note is “at molar equivalent to the divalent cation used in the assay”, the “Effect on the enzymatic reaction” value was “quenched the enzymatic reaction”.

As for `O=P(O)(O)O` [Pi, inorganic phosphate], the Product inhibition entry was “Product inhibition”.

As for `O=C(O)CC(O)(CC(=O)O)C(=O)O` [citrate], the “Relative rate of ATP hydrolysis” value under setting [1] came to 0.686. In addition, for the setting “citrate at 50 μM”, the “Enhancement of enzymatic activity” value was around 50%. In addition, the “Inhibition of ATP hydrolytic activity” value (citrate at 1 mM in the presence of 10 mM Mg++) came to 30%.

Turning to `CCO` [ethanol], the “Relative rate of ATP hydrolysis” value (5 ng linear DNA as substrate, +200 ng t-RNA, +500 ng circular DNA or +5% ethanol) is on record as 0.86; the “Relative rate of ATP hydrolysis” value (10 ng linear DNA as substrate, +200 ng t-RNA, +500 ng circular DNA or +5% ethanol) worked out at 1.78; the “Relative rate of ATP hydrolysis” value (15 ng linear DNA as substrate, +200 ng t-RNA, +500 ng circular DNA or +5% ethanol) came to 2.64. Also, the “Effect on enzymatic activity” value (concentrations beyond 4% ethanol) is “severely inhibited”.
